Assay results reported in publication PMC6509406 (Chembiochem : a European journal of chemical biology, 2018).
“Also recorded” adds a separate entry of the source.

What was measured:
[1] = target: DgcA (CC3285) diguanylate cyclase (Caulobacter crescentus, UniProt Q9A3B9); experiment: FRET-based DGC activity assay, dose-response; assay type: biochemical; settings: for Hill coeff: from fitting the concentration-response curves; for binding affinity towards DgcA / mode of modulation of DgcA activity: in words; for remaining DGC activity of the enzyme-inhibitor-substrate complex: compound saturating concentration
[2] = test system: mCYPet-YcgR-mYPet c-di-GMP biosensor (PilZ protein YcgR); settings: cited from earlier work; for biosensor FRET response: specificity for c-di-GMP
[3] = IC50 ± SD, Table 2, negative and silent allosteric modulators
[4] = IC50 (binding affinity) against DgcA, running text and figure legends

| SMILES | IC50 [1, 3] | Hill coeff ([1]; Table 2) | binding affinity towards DgcA [1] | mode of modulation of DgcA activity [1] | % Activity ESI (DGC activity of the enzyme-substrate-inhibitor complex) ([1]; Table 2, compound saturation) | remaining DGC activity of the enzyme-inhibitor-substrate complex [1] | further results |
| --- | --- | --- | --- | --- | --- | --- | --- |
| Cn1cnc2cc(C(=O)OCC(=O)N3CCCC3=O)ccc21 [Compound 1m, 2-oxo-2-(2-oxopyrrolidin-1-yl)ethyl 1-methyl-1H-benzo[d]imidazole-5-carboxylate] | 82.2 ± 14.6 µM | 1.52 ± 0.28 | strongly reduced binding affinities | negative modulators |  |  |  |
| O=C(OCC(=O)N1CCCC1=O)c1ccc2cnccc2c1 [Compound 1n, 2-oxo-2-(2-oxopyrrolidin-1-yl)ethyl isoquinoline-6-carboxylate] | 179 ± 10.5 µM | 2.06 ± 0.15 | strongly reduced binding affinities | negative modulators | 0.0 ± 2.0% |  |  |
| O=C(NCC(=O)N1CCCC1=O)c1ccc2ncsc2c1 [Compound 1s, N-(2-oxo-2-(2-oxopyrrolidin-1-yl)ethyl)-benzo[d]thiazole-6-carboxamide] |  |  |  | partial inhibitor |  | 48% | IC50 [1, 4]: 31.6 µM |
| Nc1nc2c(ncn2[C@@H]2O[C@@H]3COP(=O)(O)O[C@H]3[C@H]2O)c(=O)[nH]1 [cyclic GMP] |  |  |  |  |  |  | biosensor FRET response [2]: no detectable response |
| O=C(OCC(=O)N1CCCC1=O)c1ccc2nccnc2c1 [Compound 1o, 2-oxo-2-(2-oxopyrrolidin-1-yl)ethyl quinoxaline-6-carboxylate] | 344 ± 19.9 µM | 2.22 ± 0.16 | strongly reduced binding affinities | negative modulators | 0.0 ± 0.7% |  |  |
| O=C(OCC(=O)N1CCCC1=O)c1ccc2[nH]ccc2c1 [Compound 1k, 2-oxo-2-(2-oxopyrrolidin-1-yl)ethyl 1H-indole-5-carboxylate] | 324 ± 39 µM | 2.37 ± 0.30 | strongly reduced binding affinities | negative modulators | 6.3 ± 0.4% |  |  |
| O=C(OCCC(=O)N1CCCC1=O)c1ccc2ncsc2c1 [Compound 1u, 3-oxo-3-(2-oxopyrrolidin-1-yl)propyl benzo[d]thiazole-6-carboxylate] |  |  | completely abolished binding affinity |  |  |  |  |
| Cn1ccc2cc(C(=O)OCC(=O)N3CCCC3=O)ccc21 [Compound 1l, 2-oxo-2-(2-oxopyrrolidin-1-yl)ethyl 1-methyl-1H-indole-5-carboxylate] | 300 ± 37.7 µM |  | strongly reduced binding affinities | negative modulators |  |  |  |
| Cc1nc2ccc(C(=O)OCC(=O)N3CCCC3=O)cc2s1 [Compound 1i, 2-oxo-2-(2-oxopyrrolidin-1-yl)ethyl 2-methylbenzo[d]thiazole-6-carboxylate] | 52.9 ± 10.7 µM | 2.72 ± 1.28 |  |  | 68.1 ± 8.8% |  |  |
| O=C(OCC(=O)N1CCCC1=O)c1ccc2ncoc2c1 [Compound 1g, 2-oxo-2-(2-oxopyrrolidin-1-yl)ethyl benzo[d]oxazole-6-carboxylate] | 3.1 ± 0.7 µM | 2.35 ± 0.82 |  | silent allosteric modulators; also recorded: silent allosteric regulator | 87.7 ± 4.2% | 87.7% |  |
| Nc1nc2c(ncn2[C@@H]2O[C@@H]3COP(=O)(O)O[C@H]4[C@@H](O)[C@H](n5cnc6c(=O)[nH]c(N)nc65)O[C@@H]4COP(=O)(O)O[C@H]3[C@H]2O)c(=O)[nH]1 [c-di-GMP, cyclic diguanosine monophosphate] |  |  |  |  |  |  | Kd ([2]; read-out: binding constant (KD) of the biosensor for c-di-GMP, 25°C): 0.198 µM |
| Nc1nc2c(ncn2[C@@H]2O[C@H](COP(=O)(O)OP(=O)(O)OP(=O)(O)O)[C@@H](O)[C@H]2O)c(=O)[nH]1 [guanosine 5-triphosphate] |  |  |  |  |  |  | biosensor FRET response [2]: no detectable response |
| O=C(OCC(=O)N1CCCC1=O)c1ccc2occc2c1 [Compound 1j, 2-Oxo-2-(2-oxopyrrolidin-1-yl)ethyl benzofuran-5-carboxylate] | 4.4 ± 2.2 µM | 2.05 ± 0.12 |  | silent allosteric modulators | 92.2 ± 0.6% | 92.2% |  |
| CC(OC(=O)c1ccc2ncsc2c1)C(=O)N1CCCC1=O (stereo not drawn) [Compound 1t, 1-oxo-1-(2-oxopyrrolidin-1-yl)propan-2-yl benzo[d]thiazole-6-carboxylate] |  |  | completely abolished binding affinity |  |  |  |  |
| O=C(OCC(=O)N1CCCC1=O)c1ccc2ncsc2c1 [Compound 1, [2-oxo-2-(2-oxopyrrolidin-1-yl)ethyl] 1,3-benzothiazole-6-carboxylate] |  |  |  | complete inhibition; also recorded: complete inhibitor; also recorded: complete negative allosteric modulator |  | 1.4% | IC50 [1, 4]: < 10 µM; IC50 ([1]; IC50 ± SD, Table 1, 20 nM DgcA, 20 μM GTP, 25 °C, 1% DMSO): 4 ± 0.2 µM; Hill coeff ([1]; Table 1): 2.34 ± 0.19; % Activity ESI (DGC activity of the enzyme-substrate-inhibitor complex) ([1]; Table 1, inhibitor saturation): 1.40 ± 0.1% |
| Cc1ccc(C)c(OCCCC(=O)Nc2ccc(N3CCOCC3)cc2)c1 [Compound 2, 4-(2,5-dimethylphenoxy)-N-(4-morpholin-4-ylphenyl)butanamide] |  |  |  | partial inhibitor |  | 31.4% | IC50 [1, 4]: < 10 µM; IC50 ([1]; IC50 ± SD, Table 3, negative and silent allosteric modulators): 6.4 ± 0.5 µM; % Activity ESI (DGC activity of the enzyme-substrate-inhibitor complex) ([1]; Table 3, compound saturation): 31.4 ± 1.3%; Hill coeff ([1]; Table 3): 1.36 ± 0.13 |
| CN(C)c1ccc(C(=O)OCC(=O)N2CCCC2=O)cc1 [Compound 1q, 2-oxo-2-(2-oxopyrrolidin-1-yl)ethyl 4-(dimethylamino)benzoate] |  | 2.51 ± 0.68 |  | positive modulators | 176.1 ± 3.3% | 176% | AC50 [1]: 222 ± 85.6 µM |
| O=C(OCC(=O)N1CCCC1=O)c1ccccc1 [Compound 1h, 2-oxo-2-(2-oxopyrrolidin-1-yl)ethyl benzoate] |  | 2.02 ± 0.19 |  | positive modulators; also recorded: positive allosteric regulator | 117.9 ± 1.4% | 118% | AC50 [1]: 238 ± 72 µM |
| O=C(OCC(=O)N1CCCC1=O)c1ccc([N+](=O)[O-])cc1 [Compound 1r, 2-oxo-2-(2-oxopyrrolidin-1-yl)ethyl 4-nitrobenzoate] |  | 2.01 ± 0.18 |  | positive modulators | 156.4 ± 1.7% | 156% | AC50 [1]: 55.5 ± 13.6 µM |
| O=C(OCC(=O)N1CCCC1=O)c1ccc2scnc2c1 [Compound 1p, 2-oxo-2-(2-oxopyrrolidin-1-yl)ethyl benzothiazole-5-carboxylate] | 627 ± 49 µM |  |  |  |  |  | IC50 [1, 4]: 626 µM |
